# Patent US20050107423A1, “Quinolone antibacterial agents” (priority 2003, published 2005)
# Tests used:
# Experiment in all cases: Antibacterial assay, microtitration MIC (Test A)
# Assay type in all cases: cell-based
# M. catarrhalis BC-3531 = conditions: Moraxella catarrhalis, BC3531, Gram Negative Bacteria; strain BC-3531; read-out: Minimum Inhibitory Concentrations M. catarrhalis BC-3531
# Experimental: (§1) The compounds of the present invention were tested against an assortment of Gram-negative and Gram-positive organisms using standard microtitration techniques (Cohen et. al., Antimicrob., 1985;28:766; Heifetz, et. al., Antimicrob., 1974;6:124). The results of the evaluation are shown in Tables 1A and B, wherein “-” means no data.
# E. coli EC-2549 = conditions: Escherichia coli, EC2549, Gram Negative Bacteria; strain EC-2549; read-out: Minimum Inhibitory Concentrations E. coli EC-2549
# Experimental: as §1
# H. influenzae HI-3542 = conditions: Haemophilus influenzae, HI3542, Gram Negative Bacteria; strain HI-3542; read-out: Minimum Inhibitory Concentrations H. influenzae HI-3542
# Experimental: as §1
# S pyogenes C203 = conditions: Gram Positive Bacteria, strain C203; for MIC: read-out: Minimum Inhibitory Concentrations S pyogenes C203
# Experimental: as §1
# S. pneumo SV-1 = conditions: Gram Positive Bacteria, strain SV-1; for MIC: read-out: Minimum Inhibitory Concentrations S. pneumo SV-1
# Experimental: as §1
# E. faecalis MGH-2 = conditions: strain MGH-2; for MIC: Enterococcus faecalis, MGH2, Gram Positive Bacteria, read-out: Minimum Inhibitory Concentrations E. faecalis MGH-2; for Minimum Inhibitory Concentrations E. faecalis MGH-2: Gram Positive Bacteria
# Experimental: as §1
Structure (SMILES),MIC (M. catarrhalis BC-3531) [µg/mL],MIC (E. coli EC-2549) [µg/mL],MIC (H. influenzae HI-3542) [µg/mL],MIC (S pyogenes C203) [µg/mL],MIC (S. pneumo SV-1) [µg/mL],MIC (E. faecalis MGH-2) [µg/mL],also measured
Cc1c(N2CCC(C(O)CO)C2)c(F)cc2c(=O)c(C(=O)O)cn(C3CC3)c12 (centres unmarked) [drawing 323],1,4,0.5,,,,
CCC(=O)OC[C@@H]1CN(c2c(F)cc3c(=O)c(C(=O)O)cn(C4CC4)c3c2C)C[C@@H]1COC(=O)CC [drawing 393],0.03,1,0.5,,,,
COc1c(N2CCC(C(O)C(F)F)C2)c(F)cc2c(=O)c(C(=O)O)cn(C3CC3)c12 (centres unmarked) [drawing 311],0.03,0.125,0.015,,,,
Cc1c(N2CCC(C(O)C(C)(F)F)C2)c(F)cc2c(=O)c(C(=O)O)cn(C3CC3)c12 (centres unmarked) [drawing 336],0.03,0.125,0.03,,,,
Cc1c(N2CCC(C(O)(CO)C(F)(F)F)C2)c(F)cc2c(=O)c(C(=O)O)cn(C3CC3)c12 (centres unmarked) [drawing 338],0.06,0.5,0.06,,,,
COc1c(N2CCC(C(O)C(F)(F)F)C2)c(F)cc2c(=O)c(C(=O)O)cn(C3CC3)c12 (centres unmarked) [drawing 362],,,,0.125,0.06,0.06,
Cc1c(N2CCC(C(O)(CO)C(F)(F)F)C2)c(F)cc2c(=O)c(C(=O)O)cn(C3CC3)c12 (centres unmarked) [drawing 371],,,,0.25,0.25,0.25,
COCC(O)C1CCN(c2c(F)cc3c(=O)c(C(=O)O)cn(C4CC4)c3c2C)C1 (centres unmarked) [drawing 337],0.125,1,0.125,,,,
COc1c(N2CC(CO)C3(CC3)C2)c(F)cc2c(=O)c(C(=O)O)cn(C3CC3)c12 (centres unmarked) [drawing 420],0.008,0.06,0.008,,,,
O=C(O)c1cn(C2CC2)c2c(Cl)c(N3CCC(C(O)C4(CO)CC4)C3)c(F)cc2c1=O (centres unmarked) [drawing 354],,,,0.125,0.125,0.125,
CCOC[C@@H]1CN(c2c(F)cc3c(=O)c(C(=O)O)cn(C4CC4)c3c2C)C[C@@H]1CO [drawing 390],0.03,0.125,0.03,,,,
COc1c(N2C[C@@H]3CC[C@@H](O)[C@@H]3C2)c(F)cc2c(=O)c(C(=O)O)cn(C3CC3)c12 [drawing 454],,,,0.125,0.125,0.125,
Cc1c(N2CCC(C(C)O)C2)c(F)cc2c(=O)c(C(=O)O)cn(C3CC3)c12 (centres unmarked) [drawing 344],,,,0.06,0.03,0.06,
COc1c(N2CCC(C(O)C3(CO)CC3)C2)c(F)cc2c(=O)c(C(=O)O)cn(C3CC3)c12 (centres unmarked) [drawing 353],,,,0.25,0.125,0.25,
COc1c(N2CC(CO)C3(CC3)C2)c(F)cc2c(=O)c(C(=O)O)cn(C3CC3)c12 (centres unmarked) [drawing 429],,,,0.03,0.03,0.06,
Nc1nc(-n2cc(C(=O)O)c(=O)c3cc(F)c(N4C[C@@H]5CC[C@@H](O)[C@@H]5C4)c(Cl)c32)c(F)cc1F [drawing 455],,,,0.25,0.125,0.25,
Cc1c(N2CCC(C(C)O)C2)c(F)cc2c(=O)c(C(=O)O)cn(C3CC3)c12 (centres unmarked) [drawing 346],,,,,,,Minimum Inhibitory Concentrations S pyogenes C203 (S pyogenes C203): 0.06 µg/mL; Minimum Inhibitory Concentrations S. pneumo SV-1 (S. pneumo SV-1): 0.06 µg/mL; Minimum Inhibitory Concentrations E. faecalis MGH-2 (E. faecalis MGH-2): 0.06 µg/mL
Cc1c(N2CCC(C(O)C(F)(F)F)C2)c(F)cc2c(=O)c(C(=O)O)cn(C3CC3)c12 (centres unmarked) [drawing 364],,,,,,,Minimum Inhibitory Concentrations S pyogenes C203 (S pyogenes C203): 0.5 µg/mL; Minimum Inhibitory Concentrations S. pneumo SV-1 (S. pneumo SV-1): 0.125 µg/mL; Minimum Inhibitory Concentrations E. faecalis MGH-2 (E. faecalis MGH-2): 0.06 µg/mL
COc1c(N2CCC(C(O)C3(CO)CC3)C2)c(F)cc2c(=O)c(C(=O)O)cn(C3CC3)c12 (centres unmarked) [drawing 320],,0.25,0.03,,,,
Nc1nc(-n2cc(C(=O)O)c(=O)c3cc(F)c(N4CCC(C(O)C(F)(F)F)C4)c(Cl)c32)c(F)cc1F (centres unmarked) [drawing 366],,,,1,0.5,0.5,
O=C(O)c1cn(C2CC2)c2nc(N3CCC(C(O)C(F)F)C3)c(F)cc2c1=O (centres unmarked) [drawing 352],,,,0.25,0.25,0.125,
Nc1nc(-n2cc(C(=O)O)c(=O)c3cc(F)c(N4CCC(C(O)CO)C4)cc32)c(F)cc1F (centres unmarked) [drawing 358],,,,0.125,0.06,0.125,
CC(O)(CO)C1CCN(c2c(F)cc3c(=O)c(C(=O)O)cn(C4CC4)c3c2Cl)C1 (centres unmarked) [drawing 372],,,,0.25,0.25,0.25,
Nc1c(F)c(N2CCC(C(O)C(F)(F)F)C2)c(F)c2c1c(=O)c(C(=O)O)cn2C1CC1 (centres unmarked) [drawing 365],,,,0.5,0.125,0.06,
